Assay [1] has as its target T1, Histamine H3 receptor (Cavia porcellus, UniProt Q9JI35). The assay can be described thus: Histamine H3 radioligand binding assay, guinea pig cortex ([3H]-R-α-methylhistamine). Set-up: The cortex was dissected, weighed and homogenised in ice-cold 20 mM Hepes-NaOH buffer; from tissue; host or cells: guinea pig cerebral cortex membranes. Conditions: guinea pig cortex membranes; [3H]-R-α-methylhistamine 0.1 nM; typical variance ±0.12 log units; read-out: pKI (binding assay) - cortex (converted). The protocol:
Histamine H3 Radioligand Binding Assay—Guinea Pig Cortex
Male Dunkin Hartley guinea pigs (200-300 g) were used. The whole brain was removed and immediately placed in ice-cold 20 mM Hepes-NaOH buffer (pH7.4 at 21±3° C.). The cortex was dissected, weighed and homogenised in ice-cold 20 mM Hepes-NaOH buffer (pH7.4 at 21±3° C.) (50 ml/guinea-pig cortex) using a polytron (Kinematica AG; PT-DA 3020/2TS, 3×3 s). The homogenate was centrifuged at 100×g for 5 min and the supernatants pooled and stored at 4° C. The pellets were rehomogenised in fresh ice-cold buffer (80 ml) and recentrifuged (100×g for 5 min). The supernatants were pooled and pellets rehomogenised and recentrifuged (100×g for 5 min). All supernatants were pooled and centrifuged at 39,800×g for 12 min at 4° C. The final pellet was resuspended in 20 mM Hepes-NaOH buffer (pH7.4 at 21±3° C.) to a tissue concentration of 7.5 mg.ml^−1, using a teflon-in-glass homogeniser.
Incubation Conditions and Data Analysis
These were essentially identical to those used for the guinea pig ileum myenteric plexus assay described above, except that the final assay concentration of [^3H]-R-α-methylhistamine was 0.1 nM. Typical variance in this assay is ±0.12 log units.

The target of assay [2] is T1, Histamine H3 receptor. As to the kind of experiment: ileal longitudinal muscle, myenteric plexus functional assay (rightward shift of R-(α)-methylhistamine E/[A] curves, Schild). The assay is classed as cell-based. The note with it: guinea pig ileum longitudinal muscle myenteric plexus, electrically stimulated; antagonism of R-(α)-methylhistamine; typical variance ±0.15 log units; read-out: pKB (functional assay) - ileum (converted). Set-up: the longitudinal muscle layer and adhering myenteric plexus was teased away; from tissue; host or cells: guinea pig ileal longitudinal muscle with myenteric plexus (organ bath). The protocol: The biological activity of the compounds of the examples was measured using the ileal longitudinal muscle, myenteric plexus assay described by Paton and Aboo Zar (J. Physiol. 1968, 194, 13-33). Male Dunkin-Hartley guinea pigs (250-300 g) were employed. Briefly, a 50 cm portion of ileum proximal to the caecum was removed, after discarding the terminal 20 cm. Ileal segments (3 cm) were cleaned by passing Krebs-Henseleit buffer containing 3 μM mepyramine gently through the ileum using a Pasteur pipette (size: 13.8 cm length, 0.65 cm diameter). To avoid unnecessary damage to the tissue, Krebs-Henseleit buffer was passed through the ileal segment, while it was lying horizontally on a petri dish. Therefore, the ileum was not over-distended and the buffer flowed through with ease. Each segment was then passed over a Pasteur pipette and the longitudinal muscle layer and adhering myenteric plexus was teased away using moist cotton wool, by stroking tangentially away from the mesenteric attachment. The tissues were suspended in 20 ml organ baths containing Krebs-Henseleit buffer at 37±1° C. and gassed with 95% CO2/5% O2. The tissues were ligated to two parallel stainless steel wires, situated between two platinum electrodes (0.76 cm length, 0.06 cm diameter). All measurements were recorded isometrically (Grass FTO3 transducer). Following an initial loading tension of 1 g, the tissues were stimulated with electrical pulses at a frequency of 0.1 Hz and a pulse duration of 0.5 msec, as described by Kosterlitz & Watt (Br. J. Pharmacol. 1968, 266-276). Initially, the tissues were stimulated at supramaximal (1.3 fold times maximal) voltage for a period of 30 min and then the tissues were washed and re-stimulated. A “sighter dose” of the selective histamine H3-receptor agonist, R-(α)-methylhistamine (0.3 μM) (Arrang et al. Nature, 1987, 117-123), was administered. Upon generation of response, the “sighter dose” was removed from the tissues by “washout” (6 washes over 60 min) and during this period the electrical stimulation was switched off. The tissues were then re-stimulated and allowed to stabilise prior to the addition of drug treatments, which were allocated on a randomised block basis to the organ baths. Following the incubation period, a single cumulative E/[A] curve was obtained. The experimental E/[A] curve data was expressed as the percentage inhibition of the peak height of electrically-stimulated contraction. Antagonist affinity values were calculated from the degree of rightward shift of the R-(α)-methylhistamine E/[A] curves using Schild's methods (Arunlakshana & Schild Br. J. Pharmacol. 1959, 48-58). Typical variance in this assay is ±0.15 log units.

T1 sequence (Q9JI35 whole entry): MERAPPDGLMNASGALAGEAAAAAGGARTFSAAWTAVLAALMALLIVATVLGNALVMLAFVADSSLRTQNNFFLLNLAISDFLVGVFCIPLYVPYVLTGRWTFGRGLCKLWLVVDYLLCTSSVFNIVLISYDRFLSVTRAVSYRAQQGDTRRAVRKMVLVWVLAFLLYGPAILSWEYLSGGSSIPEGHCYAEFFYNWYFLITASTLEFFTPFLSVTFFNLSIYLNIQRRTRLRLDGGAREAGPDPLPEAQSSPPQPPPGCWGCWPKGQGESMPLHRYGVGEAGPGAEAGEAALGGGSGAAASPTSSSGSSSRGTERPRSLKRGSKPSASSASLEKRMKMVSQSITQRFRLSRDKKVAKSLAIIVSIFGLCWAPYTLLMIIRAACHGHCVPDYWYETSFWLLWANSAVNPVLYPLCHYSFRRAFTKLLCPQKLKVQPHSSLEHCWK

For `O=S(=O)(CC(O)CCc1c[nH]cn1)NCc1ccc(Cl)cc1` (stereo not drawn) [Example 2, N-(4-Chlorobenzyl)-2-hydroxy-4-(1H-imidazol-4-yl)-1-butanesulfonamide], the Ki at Histamine H3 receptor [1] was 0.275 µM. Moreover, the Kb on Histamine H3 receptor [2] is 0.24 µM. In the case of `O=C(CCc1c[nH]cn1)CS(=O)(=O)NCc1ccc(Cl)cc1` [Example 4, N-(4-Chlorobenzyl)-2-oxy-4-(1H-imidazol-4-yl)-1-butanesulfonamide], the Ki on Histamine H3 receptor [1] is 0.0617 µM. Moreover, the Kb on Histamine H3 receptor [2] is 0.257 µM.

Regarding `O=S(=O)(CCCCCCc1c[nH]cn1)NCc1ccc(Cl)cc1` [Example 7, N-(4-Chlorobenzyl)-6-(1H-imidazol-4-yl)-1-hexanesulfonamide], on Histamine H3 receptor [1], the Ki was 0.00288 µM. Besides, the Kb on Histamine H3 receptor [2] is 0.00513 µM. As for `O=S(=O)(CC(O)CCCCc1c[nH]cn1)NCc1ccc(Cl)cc1` (stereo not drawn) [Example 8, N-(4-Chlorobenzyl)-2-hydroxy-6-(1H-imidazol-4-yl)-1-hexanesulfonamide], the Ki on Histamine H3 receptor [1] was 0.00427 µM. Moreover, at Histamine H3 receptor [2], the Kb was 0.0126 µM.

Consider `O=S(=O)(CCCCc1c[nH]cn1)NCCc1ccc(Cl)cc1` [Example 9, N-(4-Chlorophenethyl)-4-(1H-imidazol-4-yl)-1-butanesulfonamide], for which, on Histamine H3 receptor [1], the Ki was 0.0447 µM. In addition, the Kb on Histamine H3 receptor [2] is 0.302 µM. Turning to `O=S(=O)(CC(O)CCc1c[nH]cn1)NCCc1ccc(Cl)cc1` (stereo not drawn) [Example 10, N-(4Chlorophenethyl)-2-hydroxy-4-(1H-imidazol-4-yl)-1-butanesulfonamide], the Ki at Histamine H3 receptor [1] was 0.741 µM. On to `O=S(=O)(CCCCCc1c[nH]cn1)NCCc1ccc(Cl)cc1` [Example 11, N-(4-Chlorophenethyl)-5-(1H-imidazol-4-yl)-1-pentanesulfonamide], for which the Ki at Histamine H3 receptor [1] was 0.00724 µM. The Kb on Histamine H3 receptor [2] was 0.0295 µM. Taken in the same sequence, the figures for `O=S(=O)(CCCCCc1c[nH]cn1)NCc1ccccc1` [Example 13, N-Benzyl-5-(1H-imidazol-4-yl)-1-pentanesulfonamide] were 0.00891 µM and 0.0589 µM. Taken in the same sequence, the figures for `O=S(=O)(CC(O)CCCc1c[nH]cn1)NCc1ccccc1` (stereo not drawn) [Example 14, N-Benzyl-2-hydroxy-5-(1H-imidazol-4-yl)-1-pentanesulfonamide] were 0.0813 µM and 0.724 µM.

`O=S(=O)(CCCCCc1c[nH]cn1)NCc1ccc(Br)cc1` [Example 15, N-(4-Bromobenzyl)-5-(1H-imidazol-4-yl)-1-pentanesulfonamide]: the Ki at Histamine H3 receptor [1] is 0.000891 µM. The Kb at Histamine H3 receptor [2] is 0.00339 µM. For `O=S(=O)(CC(O)CCCc1c[nH]cn1)NCc1ccc(Br)cc1` (stereo not drawn) [Example 16, N-(4-Bromobenzyl)-2-hydroxy-5-(1H-imidazol-4-yl)-1-pentanesulfonamide], in that order: 0.00112 µM and 0.0182 µM. On to `O=S(=O)(CCCCCc1c[nH]cn1)NCC1CCCCC1` [Example 17, N-Cyclohexylmethyl-5-(1H-imidazol-4-yl)-1-pentanesulfonamide], for which, at Histamine H3 receptor [1], the Ki was 0.0219 µM. Also, the Kb on Histamine H3 receptor [2] is 0.0468 µM. Taken in the same sequence, the figures for `O=S(=O)(CC(O)CCCc1c[nH]cn1)NCC1CCCCC1` (stereo not drawn) [Example 18, N-Cyclohexylmethyl-2-hydroxy-5-(1H-imidazol-4-yl)-1-pentanesulfonamide] were 0.141 µM and 0.389 µM. For `O=S(=O)(CCCCCc1c[nH]cn1)NCc1ccccc1Cl` [Example 19, N-(2-Chlorobenzyl)-5-(1H-imidazol-4-yl)-1-pentanesulfonamide], in that order: 0.0195 µM and 0.245 µM.

As for `O=S(=O)(CC(O)CCCc1c[nH]cn1)NCc1ccccc1Cl` (stereo not drawn) [Example 20, N-(2-Chlorobenzyl)-2-hydroxy-5-(1H-imidazol-4-yl)-1-pentanesulfonamide], the Ki on Histamine H3 receptor [1] is 0.126 µM. For the same compound, the Kb at Histamine H3 receptor [2] is 0.331 µM. For `NC(CCCc1c[nH]cn1)CS(=O)(=O)NCc1ccc(Cl)cc1` (stereo not drawn) [Example 40, 2-Amino-N-(4-chlorobenzyl)-5-(1H-imidazol-4-yl)-1-pentanesulfonamide], the Ki at Histamine H3 receptor [1] was 22.4 µM.

The record behind these values is US6355665B1, “1H-4(5)-substituted imidazole derivatives, their preparation and their use as histamine H3 receptor ligands” (James Black Foundation Limited, priority 1997, dated 2002).
